Like-named read-outs stand apart in the source and are kept apart here.
Experiments:
[1] = system: Sphaerechinus granularis embryos; settings: cited from earlier work
[2] = system: Paracentrotus lividus embryos; test: Embryotoxicity test: percentage of hatched sea urchin larvae after 24 hours; assay type: in vivo; settings: for Effect on the transition to swimming blastula / larval stage: in vivo; for Concentration of total inhibition of hatching viability (0% of hatched larvae) / Hatching viability: 24 hours; for Hatching viability: at concentrations of circa 3.0 μM
Protocol: (§1) Paracentrotus lividus (Lamarck) sea urchins were collected during the breeding season by SCUBA diving in the Gulf of Naples and transported in an insulated box to the laboratory, within 1 h after collection, and maintained in captivity in well-aerated water at 18 °C in an open circuit. Living organisms were injected with 0.2 mL of 0.2 M acetylcholine (SIGMA-Aldrich, Milan, Italy) through the peribuccal membrane to induce gamete ejection. Spawned eggs were allowed to settle and were washed three times with 0.22 micron filtered sea water (FSW); eggs were then diluted to a final concentration of 3000 eggs mL^−1. Concentrated sperm was collected ‘dry’, mixing samples from at least three different males and stocking undiluted at +4 °C. Sperm mix was diluted 10 μL in 10 mL SW just before insemination and an aliquot of circa 100 μL of this solution was added to 100 mL of egg suspension. At 2–4 min after sperm addition the eggs were checked for successful fertilization and excess sperm were removed by washing the eggs once with FSW.
PUAs and PUFAs were tested on sea urchin early development. […] All concentrations were tested on egg groups collected from three different females. Groups of eggs from the same animals were used as controls. To test the effect of the solvent, other groups of embryos were incubated in 10% methanol, which was the highest concentration of solvent used for incubation experiments. Embryos were kept at 20 °C in a controlled temperature chamber under 12:12 light:dark cycle. […]

[3] = system: Paracentrotus lividus embryos; test: Embryotoxicity test: inhibition of first cell cleavage in sea urchin embryos; assay type: in vivo; settings: for Concentration at which arrest (100% blockage) of cell cleavage occurs: circa 90 min after fertilization, 20 °C
Protocol: as §1
PUAs and PUFAs were tested on sea urchin early development. […] All concentrations were tested on egg groups collected from three different females. Groups of eggs from the same animals were used as controls. To test the effect of the solvent, other groups of embryos were incubated in 10% methanol, which was the highest concentration of solvent used for incubation experiments. Embryos were kept at 20 °C in a controlled temperature chamber under 12:12 light:dark cycle.
Cleavage inhibition was assessed by counting at least 200 embryos for each well.
Statistical analysis and IC50 calculation were made by using the Prism software (GraphPad software inc. La Jolla, CA, USA).

pelagic copepods = system: pelagic copepods; set-up: method as in ref 28 = [28]; 28 Ianora A Romano G Carotenuto Y Esposito F Roncalli V Buttino I Miralto A Impact of the diatom oxylipin 15S-HEPE on the reproductive success of the copepod Temora stylifera Hydrobiologia 2010 submit; settings: printed equivalent 6.58 μM; cited from earlier work
Ciona intestinalis = system: Ciona intestinalis; set-up: method as in PMID 12874802; settings: printed equivalent 1.32 μM; cited from earlier work
early P. lividus embryos = system: early P. lividus embryos; set-up: method as in PMID 12939379; settings: cited from earlier work
[4] = system: Paracentrotus lividus embryos and pluteus larvae; test: Teratogenic effect after 48 hours of incubation (abnormalities and mortality of larvae); assay type: in vivo
Protocol: PUAs were also tested for their teratogenic effect after long term incubations. After 48 hours of incubation with test compounds, the number of abnormalities and mortality were assessed according to Pagano et al.. Embryos at various stages were observed under a light microscope (Zeiss Axiovert 135TV). Pictures were taken using a Zeiss Axiocam connected directly to the microscope.

[5] = system: Paracentrotus lividus embryos and pluteus larvae; test: TUNEL fluorescence labeling of apoptosis in larvae after 48 hours of exposure; assay type: in vivo
Protocol: P. lividus embryos were incubated as described above in decadienal at concentrations ranging from 1.32 to 6.58 μM for 48 hours. Pluteus larvae were fixed in paraformaldehyde 4% (SIGMA-Aldrich, Milan, Italy) in sea water for 2 hours at room temperature. Fixed sea urchin embryos were washed several times in phosphate saline buffer 10 mM at pH 7.4 (PBS) to remove paraformaldehyde and then incubated for 1 h in a solution of 0.1% Triton X-100 and 0.1% sodium citrate, at 4 °C. Apoptosis was assessed using TdT-mediated dUTP nick end labeling (TUNEL) (Roche Diagnostics) according to manufacturer’s instructions. After washing in PBS containing 1% bovine albumin serum (BSA, Sigma-Aldrich), treated samples were incubated at 37 °C for 90 min in TUNEL solution in a humidified chamber, in the dark. Control embryos were fixed and stained as described above. To obtain TUNEL-positive control samples, embryos were incubated for 10 min in 50 mM Tris-HCl, pH 7.5, 10 mM MgCl2, 0.1% dithiothreitol, containing 250 μg mL^−1 DNase I (grade II from bovine pancreas; Boehringer GmbH, Mannheim, Germany) at room temperature. Negative controls were obtained by incubating embryos in label solution only, as recommended by the manufacturer. […] Pictures were taken using a Zeiss Axiocam connected directly to the microscope.

[6] = Decadienal stability in nutrient enriched sea water (f/2 medium), spectrophotometric; assay type: physicochemical
Protocol: Decadienal stock solution was prepared by diluting a known amount of the substance (determined by weight) in methanol. The methanolic solution was further diluted in autoclaved f/2 medium to achieve decadienal concentration ranging from 0.66 to 32.89 μM. A standard curve was generated by reporting the absorbance at 274 nm of decadienal as a function of its concentration (each determination was performed in triplicate).
To verify decadienal stability, solutions were prepared in triplicate at a starting concentration of 8.96 μM in 250 mL f/2 and incubated in a polystyrene culture flask closed with a screw cap. The UV spectrum and absorbance reading at 274 nm were assessed with time. Decadienal concentration was determined on the basis of a standard curve.

[7] = system: Paracentrotus lividus embryos; set-up: method as in ref 18 = [18]; 18 Sellem F Pesando D Bodennec G El Abed A Girard JP Toxic effects of Gymnodinium cf. mikimotoi unsaturated fatty acids to gametes and embryos of the sea urchin Paracentrotus lividus Water Res 2000 34; settings: P. lividus; cited from earlier work

O=C/C=C/C=C\CCCC(=O)O [9-oxo-nona-5Z,7E-dienoic acid, reference compound]
Activity on embryo cleavage ([1]; S. granularis embryos): not inhibitory

CCC=CCC=CCC=CCC=CCC=CCC=CCCC(=O)O [DHA, 4,7,10,13,16,19-docosahexaenoic acid]
Effect on the transition to swimming blastula / larval stage [2]: interfered with the transition to the larval stage | Percentage of embryos that underwent first cleavage ([3]; at 304 μM, 90 min after fertilization): 34%

CC/C=C\C/C=C\C/C=C\C/C=C\C/C=C\CCCC(=O)OC [EPA methyl-ester]
Concentration of total inhibition of hatching viability (0% of hatched larvae) [2]: 158 µM | Activity on cleavage compared with EPA ([3]; in vivo): drastic reduction in the activity

CCC=CCC=CCC=CCC=CCC=CCCCC(=O)O [EPA, 5,8,11,14,17-eicosapentaenoic acid]
Concentration of total inhibition of hatching viability (0% of hatched larvae) [2]: approximately 83 μM | Effect on the transition to swimming blastula / larval stage [2]: interfered with the transition to the larval stage | Concentration at which arrest (100% blockage) of cell cleavage occurs ([3]; circa 120 eggs mL−1): 331 µM

CCCCC/C=C/C=C/C=O [decadienal, 2-trans,4-trans-decadienal]
Concentration to induce malformations and apoptosis (pelagic copepods): 1000 ng/mL | Concentration of total inhibition of hatching viability (0% of hatched larvae) [2]: 3.95 µM | Hatching viability [2]: < 50% | Sub-lethal concentration inducing abnormal tadpole larvae (Ciona intestinalis): 0.2 µg/mL | IC50 ([3]; 95% CI = 2.96 to 3.06 μM, circa 120 eggs mL−1): 3.01 µM | Concentration at which arrest (100% blockage) of cell cleavage occurs ([3]; circa 120 eggs mL−1): 5.26 µM | Concentration inducing apoptosis relative to the dose required to induce 100% cleavage inhibition (early P. lividus embryos): five | Minimum dose to inhibit 100% of embryo cleavage ([1]; S. granularis embryos): about 20 μM | IC50 ([1]; S. granularis embryos, read-out: IC50 of cleavage inhibition): 7.3 µM | IC50 ([1]; S. granularis, low egg density, read-out: IC50 of blockage of cell divisions in newly fertilized eggs): 1.3 µM | Abnormal plutei ([4]; 1.32 μM, 48 hours, ± SD): 11.08% ± 4.4 | Retarded larvae ([4]; 1.32 μM, 48 hours, ± SD): 11.64% ± 8.2 | Dead and pre-hatching embryos ([4]; 2.63 μM, 48 hours, ±22.42 SD): up to 29.4% | Dead embryos ([4]; 3.95 μM, 48 hours, ± SD): 53.7% (±24.7 SD) | Embryos not able to survive ([4]; 5.26 μM, 48 hours, ± SD): 85.1% (±24.7 SD) | Concentration at which embryos were unable to develop beyond the blastula stage ([4]; in vivo): ≥ 3.95 µM | Sub-lethal concentrations that increased abnormal plutei and delayed development ([4]; newly fertilized eggs, 48 hours): 1.32 to 5.26 µM | Number of embryos presenting a high degree of apoptosis (TUNEL) ([5]; 1.32 μM): more or less the same as in the control | Larvae TUNEL-positive in the entire body ([5]; 2.63 μM): approximately 80% | Larvae TUNEL-positive ([5]; 3.95 μM): almost all of the larvae were positively stained | Decadienal concentration in f/2 medium ([6]; after 24 hours (start of the gradual decrease), 8.96 μM starting concentration): 7.92 (±0.3 SD) μM | Change of initial concentration ([6]; after 24 hours, f/2 medium, 8.96 μM starting concentration): 11.70% | Decadienal concentration in f/2 medium ([6]; after seven days of incubation, natural light, 20 °C, closed vessel, 8.96 μM starting concentration): 4.63 (±0.017) μM | Time for which the aldehyde can be detected spectrophotometrically ([6]; f/2 medium): up to 14 days | Time without significant change of the initial concentration ([6]; f/2 medium, 8.96 μM starting concentration, closed flask, 20 °C): at least six

CC/C=C/C=C/C=O [heptadienal, 2-trans,4-trans-heptadienal]
Concentration of total inhibition of hatching viability (0% of hatched larvae) [2]: 11.36 µM | Hatching viability [2]: > 90% | Concentration at which arrest (100% blockage) of cell cleavage occurs ([3]; circa 120 eggs mL−1): 27.27 µM

CCCCCC=CCC=CCCCCCCCC(=O)O [linoleic, 9,12-octadecadienoic acid]
Hatching (percentage of embryos) ([2]; at 357 μM): 60% | Activity on cleavage ([3]; highest concentration tested 357 μM, 90 min after fertilization): no activity

CCC=CCC=CCC=CCC=CCC=CCC(=O)O [octadecapentaenoic acid]
Concentration of total blockage of first cleavage [7]: ≥ 1 mM

CCC/C=C/C=C/C=O [octadienal, 2-trans,4-trans–octadienal]
Concentration of total inhibition of hatching viability (0% of hatched larvae) [2]: 8.08 µM | Hatching viability [2]: > 90% | Concentration at which arrest (100% blockage) of cell cleavage occurs ([3]; circa 120 eggs mL−1): 16.13 µM

C=CC/C=C/C=C/C=O [octatrienal, 2-trans,4-trans,7-octatrienal]
Concentration at which arrest (100% blockage) of cell cleavage occurs ([3]; circa 120 eggs mL−1): 11.47 µM

CCC=CCC=CCC=CCC=CCCCCC(=O)O [stearidonic acid, 6,9,12,15-octadecatetraenoic acid]
Effect on the transition to swimming blastula / larval stage [2]: interfered with the transition to the larval stage | Concentration at which arrest (100% blockage) of cell cleavage occurs ([3]; circa 120 eggs mL−1): 181 µM

CCCCCCCCCCCCC=O [tridecanal]
Effect on first cleavage ([3]; up to 25 μM, higher concentrations not tested due to solubility problems in sea water): did not interfere with first cleavage

CCCCCC=CCC=CCC=CCCCCC(=O)O [γ-linolenic, 6,9,12-octadecatrienoic acid]
Hatching (percentage of embryos) ([2]; at 360 μM): 50% | Activity on cleavage ([3]; highest concentration tested 359 μM, 90 min after fertilization): no activity

From paper PMC2866470, “Teratogenic Effects of Diatom Metabolites on Sea Urchin Paracentrotus lividus Embryos” (Marine Drugs, 2010)
